Experimental data published in the NIST ThermoML archive (doi:10.1016/j.jct.2005.03.004).

Settings: Liquid

CO [methanol]
Settings	vapor or sublimation pressure [kPa]
298.15 K	16.97
303.15 K	21.88
308.15 K	27.96
313.15 K	35.44
318.15 K	44.54
323.15 K	55.58
